Patent US8741899B2, “(4-chloro-2-fluoro-N-(2-fluorophenyl)-5-[(8aR)-hexahydropyrrolo-[1,2-a]pyrazin-2(1H)-ylcarbonyl]-benzenesulfonamide, and pharmaceutically acceptable salts thereof” (AbbVie Inc., priority 2009, dated 2014)

Biological target: T1, Human Cav3.2 Channels (Homo sapiens, UniProt O95180)
T1 construct: expressed in transfected cells
Test: Electrophysiologic (whole-cell patch-clamp) assessment of calcium channel activity in HEK293 cells stably expressing hCav3.2
Format: cell-based
Settings: −77 mV, geometric mean, read-out: Human Cav3.2 −77 mV IC50 (μM) GeoMean
Protocol: (i) In Vitro Methods—Electrophysiologic Assessment of Calcium Channel Activity:
Patch-clamp recordings were performed using HEK293 cells stably expressing hCav3.2. Cells were plated in T175 flasks and grown at 37° C. and under 5% CO2 to approximately 50% confluency. On the day of the experiment, cells were harvested with Detachin™ cell detachment solution (Genlantis, San Diego, Calif.) and maintained in serum-free culture medium supplemented with 25 mM HEPES up to several hours prior to experiment. Whole-cell patch-clamp recordings were obtained using extracellular saline consisting of (mM): 87.5 CsCl, 40 TEA-Cl, 5 CaCl2, 1 MgCl2, 10 HEPES, 10 glucose. The pH was adjusted to 7.2 with CsOH and the osmolarity was adjusted to approximately 310 mOsm with sucrose. Intracellular solution consisted of (mM): 112 CsCl, 27 CsF, 2 NaCl, 8.2 EGTA, 10 HEPES. Prior to an experiment 4 mM Mg2ATP was added and the pH was adjusted to 7.2 with CsOH with an osmolarity of approximately 290 mOsm. A two-pulse voltage protocol was utilized to assess compound inhibition. First, cells were held with an 8 s pre-pulse at −100 mV prior to a 160 ms test pulse to −30 mV. This was followed by an 8 s pre-pulse at approximately −75 mV prior to a […]. Increasing concentrations of antagonist were applied to individual cells in a multi-addition format with 5 minutes in each test concentration. For each cell, responses were normalized to dimethyl sulfoxide vehicle control to generate concentration-response curves.

T1 sequence (O95180 whole entry): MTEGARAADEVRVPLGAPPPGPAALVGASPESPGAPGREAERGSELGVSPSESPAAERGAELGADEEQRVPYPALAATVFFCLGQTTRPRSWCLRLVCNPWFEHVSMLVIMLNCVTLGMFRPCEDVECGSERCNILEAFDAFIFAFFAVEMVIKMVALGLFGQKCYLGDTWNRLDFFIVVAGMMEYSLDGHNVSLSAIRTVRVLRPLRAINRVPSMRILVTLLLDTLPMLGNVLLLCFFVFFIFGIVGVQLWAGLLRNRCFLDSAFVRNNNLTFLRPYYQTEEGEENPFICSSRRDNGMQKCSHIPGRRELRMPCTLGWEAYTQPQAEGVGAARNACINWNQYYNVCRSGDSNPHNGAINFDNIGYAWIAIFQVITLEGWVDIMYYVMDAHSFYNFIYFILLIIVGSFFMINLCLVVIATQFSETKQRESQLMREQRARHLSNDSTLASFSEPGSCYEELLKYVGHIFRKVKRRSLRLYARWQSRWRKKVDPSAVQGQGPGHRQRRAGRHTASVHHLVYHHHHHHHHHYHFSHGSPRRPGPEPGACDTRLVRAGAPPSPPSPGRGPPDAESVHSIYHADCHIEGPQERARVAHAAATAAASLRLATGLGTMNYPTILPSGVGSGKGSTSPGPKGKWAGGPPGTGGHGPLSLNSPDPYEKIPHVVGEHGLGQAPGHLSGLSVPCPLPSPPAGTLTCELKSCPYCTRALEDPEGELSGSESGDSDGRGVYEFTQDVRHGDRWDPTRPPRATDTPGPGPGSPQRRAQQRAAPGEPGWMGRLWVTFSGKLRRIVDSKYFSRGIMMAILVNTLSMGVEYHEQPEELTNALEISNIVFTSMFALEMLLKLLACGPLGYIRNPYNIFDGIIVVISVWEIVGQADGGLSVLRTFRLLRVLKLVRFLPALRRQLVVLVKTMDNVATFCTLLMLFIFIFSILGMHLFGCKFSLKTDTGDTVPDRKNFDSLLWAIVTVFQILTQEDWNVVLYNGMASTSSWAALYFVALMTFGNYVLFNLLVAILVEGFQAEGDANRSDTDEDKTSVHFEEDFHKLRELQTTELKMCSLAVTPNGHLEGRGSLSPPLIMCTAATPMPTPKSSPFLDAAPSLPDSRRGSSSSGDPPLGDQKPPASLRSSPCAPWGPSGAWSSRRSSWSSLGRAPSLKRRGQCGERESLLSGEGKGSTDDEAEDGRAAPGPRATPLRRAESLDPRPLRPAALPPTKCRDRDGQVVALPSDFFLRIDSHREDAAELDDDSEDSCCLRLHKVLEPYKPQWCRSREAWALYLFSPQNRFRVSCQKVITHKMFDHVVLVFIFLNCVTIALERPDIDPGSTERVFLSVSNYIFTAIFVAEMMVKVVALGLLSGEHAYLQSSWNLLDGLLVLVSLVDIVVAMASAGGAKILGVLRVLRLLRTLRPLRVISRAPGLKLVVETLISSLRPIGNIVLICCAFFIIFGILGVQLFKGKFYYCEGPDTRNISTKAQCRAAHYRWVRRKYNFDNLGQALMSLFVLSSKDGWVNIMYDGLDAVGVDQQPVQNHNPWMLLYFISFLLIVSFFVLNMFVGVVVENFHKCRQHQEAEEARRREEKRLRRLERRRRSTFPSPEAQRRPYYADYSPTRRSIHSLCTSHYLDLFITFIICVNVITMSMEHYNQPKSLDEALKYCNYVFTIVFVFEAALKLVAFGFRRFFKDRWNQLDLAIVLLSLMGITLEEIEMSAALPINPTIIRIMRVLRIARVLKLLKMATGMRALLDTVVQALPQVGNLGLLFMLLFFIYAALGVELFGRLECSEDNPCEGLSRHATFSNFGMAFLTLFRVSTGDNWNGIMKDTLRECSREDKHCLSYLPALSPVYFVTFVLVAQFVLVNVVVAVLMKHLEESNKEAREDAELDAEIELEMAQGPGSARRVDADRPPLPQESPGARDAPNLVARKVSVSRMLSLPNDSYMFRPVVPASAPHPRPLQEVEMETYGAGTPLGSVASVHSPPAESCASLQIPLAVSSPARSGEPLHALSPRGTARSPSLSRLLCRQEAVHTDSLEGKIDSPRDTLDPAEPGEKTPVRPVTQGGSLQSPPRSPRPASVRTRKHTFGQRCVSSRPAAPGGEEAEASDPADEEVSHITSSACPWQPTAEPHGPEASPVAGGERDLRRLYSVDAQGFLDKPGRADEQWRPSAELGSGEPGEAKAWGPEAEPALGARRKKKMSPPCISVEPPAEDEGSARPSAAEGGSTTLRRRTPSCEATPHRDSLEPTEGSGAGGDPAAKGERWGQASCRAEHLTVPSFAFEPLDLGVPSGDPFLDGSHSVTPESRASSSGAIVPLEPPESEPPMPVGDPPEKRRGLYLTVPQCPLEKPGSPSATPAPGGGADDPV

IC50 [µM]	SMILES
0.6	O=C(c1cccc(S(=O)(=O)N2CCN3CCC[C@@H]3C2)c1)N1CCN(C(c2ccccc2)c2ccccc2)CC1 [Example 52, (8aR)-2-({3-[(4-benzhydrylpiperazin-1-yl)carbonyl]phenyl}sulfonyl)octahydropyrrolo[1,2-a]pyrazine]
0.5	O=C(NCC(c1ccccc1)c1ccccc1)c1cccc(S(=O)(=O)N2CCN3CCC[C@H]3C2)c1 [Example 53, N-(2,2-diphenylethyl)-3-[(8aS)-hexahydropyrrolo[1,2-a]pyrazin-2(1H)-ylsulfonyl]benzamide]
1.2	O=C(c1cccc(S(=O)(=O)N2CCN3CCC[C@H]3C2)c1)N1CCN(C(c2ccccc2)c2ccccc2)CC1 [Example 54, (8aS)-2-({3-[(4-benzhydrylpiperazin-1-yl)carbonyl]phenyl}sulfonyl)octahydropyrrolo[1,2-a]pyrazine]
1.8	O=C(NCCC(c1ccccc1)c1ccccc1)c1cccc(S(=O)(=O)N2CCN3CCC[C@H]3C2)c1 [Example 55, N-(3,3-diphenylpropyl)-3-[(8aS)-hexahydropyrrolo[1,2-a]pyrazin-2(1H)-ylsulfonyl]benzamide]
4.1	O=C(NCCc1ccc(F)cc1)c1cccc(S(=O)(=O)N2CCN3CCC[C@H]3C2)c1 [Example 56, N-[2-(4-fluorophenyl)ethyl]-3-[(8aS)-hexahydropyrrolo[1,2-a]pyrazin-2(1H)-ylsulfonyl]benzamide]
4.6	O=C(c1cc(S(=O)(=O)Nc2ccccc2F)c(F)cc1Cl)N1CCN2CCC[C@H]2C1 [Example 58, 4-chloro-2-fluoro-N-(2-fluorophenyl)-5-[(8aS)-hexahydropyrrolo[1,2-a]pyrazin-2(1H)-ylcarbonyl]benzenesulfonamide]
9	O=C(c1cc(S(=O)(=O)NCCC(c2ccccc2)c2ccccc2)c(F)cc1Cl)N1CCN2CCC[C@H]2C1 [Example 59, 4-chloro-N-(3,3-diphenylpropyl)-2-fluoro-5-[(8aS)-hexahydropyrrolo[1,2-a]pyrazin-2(1H)-ylcarbonyl]benzenesulfonamide]
5	O=C(N[C@@H]1C[C@H]1c1ccccc1)c1cccc(S(=O)(=O)N2CCN3CCC[C@H]3C2)c1 [Example 60, 3-[(8aS)-hexahydropyrrolo[1,2-a]pyrazin-2(1H)-ylsulfonyl]-N-[(1R,2S)-2-phenylcyclopropyl]benzamide]
> 10	O=C(c1cccc(S(=O)(=O)N[C@@H]2C[C@H]2c2ccccc2)c1)N1CCN2CCC[C@H]2C1 [Example 61, 3-[(8aS)-hexahydropyrrolo[1,2-a]pyrazin-2(1H)-ylcarbonyl]-N-[(1R,2S)-2-phenylcyclopropyl]benzenesulfonamide]
> 10	O=C(c1ccc(S(=O)(=O)N[C@H](CO)c2ccccc2)cc1)N1CCN2CCC[C@@H]2C1 [Example 62, 4-[(8aR)-hexahydropyrrolo[1,2-a]pyrazin-2(1H)-ylcarbonyl]-N-[(1S)-2-hydroxy-1-phenylethyl]benzenesulfonamide]
> 10	O=C(c1cc(S(=O)(=O)N2CCc3ccccc32)c(F)cc1Cl)N1CCN2CCC[C@@H]2C1 [Example 63, (8aR)-2-[2-chloro-5-(2,3-dihydro-1H-indol-1-ylsulfonyl)-4-fluorobenzoyl]octahydropyrrolo[1,2-a]pyrazine]
1.84	O=C(c1ccc(F)c(NS(=O)(=O)c2cccc(C(F)(F)F)c2)c1)N1CCN2CCC[C@@H]2C1 [Example 65, N-{2-fluoro-5-[(8aR)-hexahydropyrrolo[1,2-a]pyrazin-2(1H)-ylcarbonyl]phenyl}-3-(trifluoromethyl)benzenesulfonamide]
5.9	CN(c1ccccc1F)S(=O)(=O)c1cc(C(=O)N2CCN3CCC[C@@H]3C2)c(Cl)cc1F [Example 66, 4-chloro-2-fluoro-N-(2-fluorophenyl)-5-[(8aR)-hexahydropyrrolo[1,2-a]pyrazin-2(1H)-ylcarbonyl]-N-methylbenzenesulfonamide]
3.18	O=C(c1cc(S(=O)(=O)N2CCN(c3ccc(F)cc3)CC2)c(F)cc1Cl)N1CCN2CCC[C@@H]2C1 [Example 67, (8aR)-2-(2-chloro-4-fluoro-5-{[4-(4-fluorophenyl)piperazin-1-yl]sulfonyl}benzoyl)octahydropyrrolo[1,2-a]pyrazine]
10.9	O=C(Nc1cc(C(=O)N2CCN3CCC[C@@H]3C2)ccc1Cl)c1ccc(F)cc1 [Example 68, N-{2-chloro-5-[(8aR)-hexahydropyrrolo[1,2-a]pyrazin-2(1H)-ylcarbonyl]phenyl}-4-fluorobenzamide]
> 10	CN(c1cccc(C(=O)N2CCN3CCC[C@@H]3C2)c1)S(=O)(=O)c1cccc(C(F)(F)F)c1 [Example 69, N-{3-[(8aR)-hexahydropyrrolo[1,2-a]pyrazin-2(1H)-ylcarbonyl]phenyl}-N-methyl-3-(trifluoromethyl)benzenesulfonamide]
7.2	O=C(c1cc(S(=O)(=O)NCC(c2ccccc2)c2ccccc2)c(F)cc1Cl)N1CCN2CCC[C@@H]2C1 [Example 70, 4-chloro-N-(2,2-diphenylethyl)-2-fluoro-5-[(8aR)-hexahydropyrrolo[1,2-a]pyrazin-2(1H)-ylcarbonyl]benzenesulfonamide]
> 10	Cc1cc(C(=O)N2CCN3CCC[C@@H]3C2)ccc1NC(=O)c1ccc2ccccc2c1 [Example 72, N-{4-[(8aR)-hexahydropyrrolo[1,2-a]pyrazin-2(1H)-ylcarbonyl]-2-methylphenyl}-2-naphthamide]
1.8	O=C(Nc1cc(C(=O)N2CCN3CCC[C@@H]3C2)ccc1F)c1cc(Cl)cc(Cl)c1 [Example 73, 3,5-dichloro-N-{2-fluoro-5-[(8aR)-hexahydropyrrolo[1,2-a]pyrazin-2(1H)-ylcarbonyl]phenyl}benzamide]
2	O=C(c1cc(S(=O)(=O)NC(c2ccccc2)c2ccccc2)c(F)cc1Cl)N1CCN2CCC[C@@H]2C1 [Example 74, N-benzhydryl-4-chloro-2-fluoro-5-[(8aR)-hexahydropyrrolo[1,2-a]pyrazin-2(1H)-ylcarbonyl]benzenesulfonamide]
6.5	O=C(Nc1ccc(C(=O)N2CCN3CCC[C@@H]3C2)cc1Cl)C(c1ccccc1)c1ccccc1 [Example 75, N-{2-chloro-4-[(8aR)-hexahydropyrrolo[1,2-a]pyrazin-2(1H)-ylcarbonyl]phenyl}-2,2-diphenylacetamide]
6.4	O=C(Nc1ccc(C(=O)N2CCN3CCC[C@@H]3C2)cc1Cl)c1ccc2ccccc2c1 [Example 76, N-{2-chloro-4-[(8aR)-hexahydropyrrolo[1,2-a]pyrazin-2(1H)-ylcarbonyl]phenyl}-2-naphthamide]
> 10	CC(C)N(c1cccc(C(=O)N2CCN3CCC[C@@H]3C2)c1)S(=O)(=O)c1cccc(C(F)(F)F)c1 [Example 77, N-{3-[(8aR)-hexahydropyrrolo[1,2-a]pyrazin-2(1H)-ylcarbonyl]phenyl}-N-isopropyl-3-(trifluoromethyl)benzenesulfonamide]
> 10	O=C(Nc1cc(C(=O)N2CCN3CCC[C@@H]3C2)ccc1Cl)C(c1ccccc1)c1ccccc1 [Example 78, N-{2-chloro-5-[(8aR)-hexahydropyrrolo[1,2-a]pyrazin-2(1H)-ylcarbonyl]phenyl}-2,2-diphenylacetamide]
8.5	O=C(c1ccc(Cl)c(NC(c2ccccc2)c2ccccc2)c1)N1CCN2CCC[C@@H]2C1 [Example 79, N-benzhydryl-N-{2-chloro-5-[(8aR)-hexahydropyrrolo[1,2-a]pyrazin-2(1H)-ylcarbonyl]phenyl}amine]
2	O=C(c1cccc(NC(c2ccccc2)c2ccccc2)c1)N1CCN2CCC[C@@H]2C1 [Example 80, N-benzhydryl-N-{3-[(8aR)-hexahydropyrrolo[1,2-a]pyrazin-2(1H)-ylcarbonyl]phenyl}amine]
> 10	O=C(N[C@H](CO)c1ccccc1)c1cccc(S(=O)(=O)N2CCN3CCC[C@@H]3C2)c1 [Example 81, 3-[(8aR)-hexahydropyrrolo[1,2-a]pyrazin-2(1H)-ylsulfonyl]-N-[(1S)-2-hydroxy-1-phenylethyl]benzamide]
2.6	O=C(NC(c1ccccc1)c1ccccc1)c1cc(S(=O)(=O)N2CCN3CCC[C@H]3C2)c(F)cc1Cl [Example 82, N-benzhydryl-2-chloro-4-fluoro-5-[(8aS)-hexahydropyrrolo[1,2-a]pyrazin-2(1H)-ylsulfonyl]benzamide]
> 10	O=C(NC1CC1)c1cc(S(=O)(=O)N2CCN3CCC[C@H]3C2)c(F)cc1Cl [Example 83, 2-chloro-N-cyclopropyl-4-fluoro-5-[(8aS)-hexahydropyrrolo[1,2-a]pyrazin-2(1H)-ylsulfonyl]benzamide]
